In the supplement of paper PMC11451515:

Tested on: NOMO1
Experiment: cell viability relative to DMSO control; higher = less cytotoxic
Settings: 48 h
How it was run: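 NOMO1 or SEM cells were plated at 500 cells/well and P12-Ichikawa cells at 1000 cells/well in 1536-well plates (5 μl), after each leukemia line had been adapted for at least four passages in each medium. Pin dosing delivered library compounds in DMSO at 11 threefold concentrations, 47 μM to 0.79 nM. CellTiter-Glo One luminescence was read after 48 h at 37°C. Viability is reported as a per-plate percentage of DMSO wells, with cell-free wells as background.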

[1] = HPLM + 10% dialyzed FBS, 0.000781 µM
[2] = HPLM + 10% dialyzed FBS, 0.00234 µM
[3] = HPLM + 10% dialyzed FBS, 0.00702 µM
[4] = HPLM + 10% dialyzed FBS, 0.0211 µM
[5] = HPLM + 10% dialyzed FBS, 0.0632 µM
[6] = HPLM + 10% dialyzed FBS, 0.19 µM
[7] = HPLM + 10% dialyzed FBS, 0.569 µM
[8] = HPLM + 10% dialyzed FBS, 1.71 µM
[9] = HPLM + 10% dialyzed FBS, 5.12 µM
[10] = HPLM + 10% dialyzed FBS, 15.4 µM
[11] = HPLM + 10% dialyzed FBS, 46.1 µM
[12] = RPMI 5 mM glucose + 10% FBS, 0.000781 µM
[13] = RPMI 5 mM glucose + 10% FBS, 0.00234 µM
[14] = RPMI 5 mM glucose + 10% FBS, 0.00702 µM
[15] = RPMI 5 mM glucose + 10% FBS, 0.0211 µM
[16] = RPMI 5 mM glucose + 10% FBS, 0.0632 µM
[17] = RPMI 5 mM glucose + 10% FBS, 0.19 µM
[18] = RPMI 5 mM glucose + 10% FBS, 0.569 µM
[19] = RPMI 5 mM glucose + 10% FBS, 1.71 µM
[20] = RPMI 5 mM glucose + 10% FBS, 5.12 µM
[21] = RPMI 5 mM glucose + 10% FBS, 15.4 µM
[22] = RPMI 5 mM glucose + 10% FBS, 46.1 µM
[23] = RPMI 5 mM glucose + 10% dialyzed FBS, 0.000781 µM
[24] = RPMI 5 mM glucose + 10% dialyzed FBS, 0.00234 µM
[25] = RPMI 5 mM glucose + 10% dialyzed FBS, 0.00702 µM
[26] = RPMI 5 mM glucose + 10% dialyzed FBS, 0.0211 µM
[27] = RPMI 5 mM glucose + 10% dialyzed FBS, 0.0632 µM
[28] = RPMI 5 mM glucose + 10% dialyzed FBS, 0.19 µM
[29] = RPMI 5 mM glucose + 10% dialyzed FBS, 0.569 µM
[30] = RPMI 5 mM glucose + 10% dialyzed FBS, 1.71 µM
[31] = RPMI 5 mM glucose + 10% dialyzed FBS, 5.12 µM
[32] = RPMI 5 mM glucose + 10% dialyzed FBS, 15.4 µM
[33] = RPMI 5 mM glucose + 10% dialyzed FBS, 46.1 µM

SMILES | cell viability [1] [%] | cell viability [2] [%] | cell viability [3] [%] | cell viability [4] [%] | cell viability [5] [%] | cell viability [6] [%] | cell viability [7] [%] | cell viability [8] [%] | cell viability [9] [%] | cell viability [10] [%] | cell viability [11] [%] | cell viability [12] [%] | cell viability [13] [%] | cell viability [14] [%] | cell viability [15] [%] | cell viability [16] [%] | cell viability [17] [%] | cell viability [18] [%] | cell viability [19] [%] | cell viability [20] [%] | cell viability [21] [%] | cell viability [22] [%] | cell viability [23] [%] | cell viability [24] [%] | cell viability [25] [%] | cell viability [26] [%] | cell viability [27] [%] | cell viability [28] [%] | cell viability [29] [%] | cell viability [30] [%] | cell viability [31] [%] | cell viability [32] [%] | cell viability [33] [%]
c1ccc(CNc2nc(N3CCOc4ccccc43)nc3c2CCCC3)cc1 | 78.1 | 97.2 | 110 | 103 | 110 | 93.4 | 103 | 111 | 107 | 100 | 97.8 | 100 | 97.7 | 109 | 94.9 | 99.9 | 106 | 106 | 107 | 106 | 110 | 90.2 | 102 | 103 | 112 | 105 | 112 | 111 | 114 | 109 | 109 | 97.6 | 98.8
CCCCC(C=O)NC(=O)C(CC(C)C)NC(=O)OCc1ccccc1 (stereo not drawn) | 104 | 98.5 | 86.4 | 94.7 | 85.5 | 83 | 92.2 | 82.7 | 89.4 | 82 | 55.9 | 91.8 | 93.3 | 90.1 | 102 | 93.7 | 88.9 | 85.4 | 72.7 | 80.2 | 68.6 | 77.6 | 103 | 93.3 | 95.1 | 97.4 | 101 | 83.9 | 90.4 | 82.2 | 77.6 | 80.9 | 70.1
O=C1Nc2ccc(I)cc2/C1=C/c1cc(Br)c(O)c(Br)c1 | 111 | 96.5 | 109 | 106 | 109 | 111 | 98.6 | 99.9 | 118 | 101 | 78.9 | 86.6 | 98.1 | 96.5 | 102 | 96.2 | 100 | 96.8 | 97.6 | 102 | 88.6 | 83 | 95.4 | 93.3 | 90.9 | 92.8 | 92 | 85.9 | 104 | 96.8 | 101 | 95.3 | 76.6
CC1=C(CC(=O)O)c2cc(F)ccc2/C1=C\c1ccc([S+](C)[O-])cc1 (stereo not drawn) | 121 | 122 | 106 | 123 | 125 | 107 | 140 | 99.6 | 103 | 101 | 113 | 125 | 118 | 105 | 132 | 115 | 110 | 112 | 113 | 114 | 110 | 112 | 128 | 119 | 119 | 123 | 139 | 139 | 119 | 109 | 104 | 107 | 99.6
Cc1cc(Nc2cc(CN3CCOCC3)c3nc(C)c(Cc4ccc(Cl)cc4F)n3n2)[nH]n1 | 114 | 121 | 130 | 114 | 137 | 115 | 101 | 110 | 99.7 | 53.5 | 48.3 | 103 | 98.2 | 103 | 111 | 95.4 | 114 | 94 | 94.7 | 91.7 | 36.7 | 28.2 | 102 | 111 | 119 | 115 | 115 | 106 | 109 | 97.3 | 92 | 45 | 34.3
C=CC(=O)Nc1cccc(Nc2nc(NC3CCC(N(C)C)CC3)nc3c2ncn3C(C)C)c1 (stereo not drawn) | 96.7 | 120 | 114 | 94.7 | 111 | 109 | 125 | 73.8 | 7.49 | 5.11 | 4.77 | 127 | 111 | 115 | 100 | 103 | 104 | 99.6 | 98.2 | 11.9 | 5.39 | 3.68 | 103 | 98.2 | 103 | 103 | 106 | 105 | 105 | 72.9 | 7.93 | 5.45 | 4.26
CNCc1ccc(-c2[nH]c3cc(F)cc4c3c2CCNC4=O)cc1 | – | – | – | – | – | – | – | – | – | – | – | 111 | 117 | 126 | 147 | 133 | 127 | 128 | 130 | 120 | 132 | 125 | 103 | 120 | 131 | 155 | 139 | 139 | 125 | 136 | 151 | 145 | 141
C[S+](=O)([O-])c1ccc(-c2cnc(N)c(C(=O)Nc3ccccc3)n2)cc1 | 113 | 119 | 128 | 126 | 118 | 145 | 123 | 103 | 115 | 52.1 | 56.1 | 110 | 110 | 112 | 110 | 111 | 133 | 113 | 116 | 110 | 87 | 98.4 | 95.6 | 93.1 | 99.7 | 104 | 106 | 113 | 117 | 112 | 110 | 75 | 69.3
